Experimental data as given in patent US11939403B2, “Peptide-peptoid scaffolds” (The Regents of the University of California, priority 2020, dated 2024).
≈ marks a conversion by molar mass, not a printed value. Where “and” joins values, the source holds several entries; their conditions need not be identical. Equal entries are not always repeated. Where two headings read alike, the source gives them in different places. Marks after values point to notes of the source that are not given here. Square brackets hold non-standard residues; d marks the D form. Peptide text beside a SMILES is read from it. Gly(N-CH2-oxan-4-yl) = O=C(O)CNCC1CCOCC1; NCyclohexylmethylGly = O=C(O)CNCC1CCCCC1; NMeL = CN[C@@H](CC(C)C)C(=O)O; NMeA = CN[C@@H](C)C(=O)O; NEtG = CCNCC(=O)O

Tests used:
[1] = Aqueous solubility, Japanese Pharmacopoeia Second Fluid (pH 6.8); type: physicochemical; conditions: for Aq. Sol.: Japanese Pharmacopoeia Second Fluid (pH 6.8); for solubility: Japanese Pharmacopoeia Second Fluid
Method: (§1) For each of these six pure compounds, calculated (atomistic) octanol/water partition coefficient (A Log P), aqueous solubility (Aq. Sol), PAMPA and MDCK permeabilities, experimental octanol/water partition coefficient (Log D (oct/w)), P-gp efflux ratios, microsomal stability, and serum protein binding were determined (Table 1 and FIG. 5).

Microsomal stability = type: in vitro ADME; conditions: remaining rate after 30 min of incubation with pooled liver microsomes (0.1 mg/mL, rats); for remaining at 0.5 h: rat
Serum protein binding = type: in vitro ADME; conditions: bound fractions in rat plasma; for fraction unbound: rat, plasma
in vitro = conditions: dog, MDCK, MDCK Perm.
Method: (§2) Permeabilities were also measured in a Madin-Darby canine kidney (MDCK) permeability assay, in which the passage of the compound through a semipermeable membrane coated with MDCK cells is measured.

P-gp [2] = target: T1, P-gp (Homo sapiens, UniProt P08183); assay: in vitro; conditions: MDCK, P-gp R-value
[3] = Experimental octanol/water partition coefficient Log D (oct/w); conditions: for logD: octanol/water, pH 7.4, LogD (oct/w)
Method: as §1

[4] = PAMPA permeability of pure compounds under sink conditions; type: in vitro ADME; conditions: detergents in donor and acceptor wells (sink conditions); for Papp: PAMPA, read-out: PAMPA Perm.
Method: PAMPA permeability studies on these six pure compounds were performed initially under the same conditions as those used in the original library screen, using a concentration of 1 μM in the donor well based on the estimated concentration of each compound in the original library. […] Without being bound by theory, it was hypothesized that the pure compounds were precipitating in the donor well or adhering to the walls of the apparatus, and that as mixtures they could act as pseudo-detergents (or mutual blocking agents) to help prevent escape from solution (such as through aggregation or adsorption). Therefore, the PAMPA permeabilities of the pure compounds using detergents in the donor and acceptor wells as “sink” conditions were re-investigated. Using these conditions, the permeability trends were similar to those observed in the Libraries. […] The PAMPA permeabilities of the scaffold A compounds were high (large) across the entire A Log P range, whereas the permeabilities of scaffold B compounds trended upward (greater) along with A Log P.

[5] = Oral bioavailability in mice; type: in vivo; conditions: for bioavailability / BA: mouse; for bioavailability: po
Excerpt: Based on their permeabilities in PAMPA and MDCK cells, the in vivo pharmacokinetics of 5 of these 6 pure compound library members were investigated (B03 was not included in the oral PK study, because of its low (small) PAMPA and MDCK permeabilities). […] To test whether metabolism and efflux were the main factors contributing to the low oral bioavailability (BA), mice were pretreated with either the CYP inhibitor […] (ABT), the P-gp inhibitor elacridar (GF120918), or a combination of both the CYP and P-gp inhibitors. […] Combining the inhibitors also produced oral bioavailabilities that reflected the compounds' relative PAMPA permeabilities.

P-gp [6] = target: T1, P-gp; conditions: MDCK, 10 μM
[7] = PAMPA permeability under standard (library screen) conditions; type: in vitro ADME; conditions: pure compounds, donor well concentration 20 μM
Excerpt: Libraries A and B were synthesized separately as mixtures using solid phase split-pool peptide synthesis, incorporating peptoid side chains as primary amines using the submonomer method. (Zuckermann R N et al. Efficient Method for the Preparation of Peptoids [Oligo(N-Substituted Glycines)] by Submonomer Solid-Phase Synthesis. J Am Chem Soc. (1992) 114, 10646-7. doi: DOI 10.1021/ja00052a076. PubMed PMID: WOS:A1992KD71700076.) The libraries were cleaved, cyclized in solution, and roughly purified using solid phase extraction on C18 media. Parallel artificial membrane permeability assays (PAMPA) were used to measure passive permeabilities; PAMPA permeabilities within each library varied parabolically as a function of A Log P (FIG. 2A).
PAMPA permeability studies on these six pure compounds were performed initially under the same conditions as those used in the original library screen, […] of each compound in the original library. […] Without being bound by theory, it was hypothesized that the pure compounds were precipitating in the donor well or adhering to the walls of the apparatus, and that as mixtures they could act as pseudo-detergents (or mutual blocking agents) to help prevent escape from solution (such as through aggregation or adsorption). […]

[8] = pH 7.4
Method: as §1

physchem = conditions: pH 7.4, LogD (oct/w)
Method: as §1

[9] = pH 6.8, pure compounds, values in text, read-out: Aqueous solubility
[10] = in vivo, mice, oral, no inhibitors, read-out: Oral bioavailability, no inhib.
[11] = in vivo, mice, oral, pretreatment with 1-aminobenztriazole (CYP inhibitor), read-out: Oral bioavailability, +CYP inhib.
[12] = in vivo, mice, oral, pretreatment with 1-aminobenztriazole and GF120918, read-out: Oral bioavailability, +CYP inhib. +P-gp inhib.
[13] = not told, mice, oral, pretreatment with GF120918 (P-gp inhibitor), read-out: Oral bioavailability, +P-gp inhib.
[14] = pH 6.8, Japanese Pharmacopoeia Second Fluid (pH 6.8), read-out: Aq. Sol.
[15] = mice, oral, pretreatment with 1-aminobenztriazole and GF120918
[16] = mice, oral, pretreatment with GF120918 (P-gp inhibitor)

T1 sequence (P08183 whole entry): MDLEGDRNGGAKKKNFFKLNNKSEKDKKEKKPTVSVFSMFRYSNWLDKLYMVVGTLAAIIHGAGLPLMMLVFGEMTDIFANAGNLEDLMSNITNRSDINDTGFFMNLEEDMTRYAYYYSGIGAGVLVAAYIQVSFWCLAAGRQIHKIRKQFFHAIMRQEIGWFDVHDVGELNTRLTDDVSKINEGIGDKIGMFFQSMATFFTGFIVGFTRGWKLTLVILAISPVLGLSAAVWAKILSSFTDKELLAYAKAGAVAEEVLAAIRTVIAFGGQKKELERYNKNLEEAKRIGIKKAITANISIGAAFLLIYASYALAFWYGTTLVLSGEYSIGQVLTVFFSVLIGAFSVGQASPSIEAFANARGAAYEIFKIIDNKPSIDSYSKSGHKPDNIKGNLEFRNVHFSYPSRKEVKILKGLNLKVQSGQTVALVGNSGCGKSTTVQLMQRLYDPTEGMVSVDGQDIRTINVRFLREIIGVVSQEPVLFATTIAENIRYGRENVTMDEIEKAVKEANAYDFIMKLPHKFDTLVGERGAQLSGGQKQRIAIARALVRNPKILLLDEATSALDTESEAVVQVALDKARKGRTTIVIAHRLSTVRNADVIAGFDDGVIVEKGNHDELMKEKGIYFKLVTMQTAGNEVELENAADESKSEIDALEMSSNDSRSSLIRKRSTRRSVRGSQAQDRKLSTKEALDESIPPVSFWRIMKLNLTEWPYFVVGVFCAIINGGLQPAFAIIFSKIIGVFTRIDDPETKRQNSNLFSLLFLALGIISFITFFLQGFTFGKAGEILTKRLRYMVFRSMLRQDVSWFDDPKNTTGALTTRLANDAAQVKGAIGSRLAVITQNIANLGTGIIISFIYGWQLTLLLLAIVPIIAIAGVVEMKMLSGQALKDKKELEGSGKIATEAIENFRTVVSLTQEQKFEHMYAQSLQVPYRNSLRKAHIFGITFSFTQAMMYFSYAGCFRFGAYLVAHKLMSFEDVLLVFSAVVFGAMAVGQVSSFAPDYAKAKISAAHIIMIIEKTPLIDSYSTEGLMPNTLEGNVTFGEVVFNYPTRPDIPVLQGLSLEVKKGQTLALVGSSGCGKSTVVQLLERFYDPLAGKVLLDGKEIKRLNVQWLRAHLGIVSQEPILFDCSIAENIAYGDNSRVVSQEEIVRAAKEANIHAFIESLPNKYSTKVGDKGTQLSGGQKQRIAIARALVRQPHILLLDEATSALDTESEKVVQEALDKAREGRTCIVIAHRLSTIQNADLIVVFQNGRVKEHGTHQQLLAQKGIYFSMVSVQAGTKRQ
Method for MDCK cells: as §2

SMILES	Aq. Sol. [1]	solubility [1, 9]	remaining at 0.5 h (Microsomal stability)	Microsomal Stability (Microsomal stability)	Serum Protein Binding (Serum protein binding)	fraction unbound (Serum protein binding)	Papp (in vitro)	efflux ratio at 10 μM (P-gp [2])	logD [3]	Papp [4]	PAMPA Perm. [4]	bioavailability [5, 10]	bioavailability [5, 11]	bioavailability [5, 12]	bioavailability [5, 13]	P-gp R-value (P-gp [6])	solubility [1, 14]	Oral bioavailability, +CYP inhib. +P-gp inhib. [5, 15]	PAMPA membrane transport [7]	MDCK Perm. (MDCK cells; dog)	other results
CCN1CC(=O)N[C@@H](CC(C)C)C(=O)N(C)[C@@H](C)C(=O)N[C@@H](CC(C)C)C(=O)N2CCC[C@@H]2C(=O)N(CC2CCOCC2)CC(=O)N[C@@H](CC(C)C)C(=O)N(C)[C@@H](C)C(=O)N[C@@H](C)C(=O)N2CCC[C@@H]2C1=O [Compound A03] (cyclo([NEtG]L[NMeA]L[dP][Gly(N-CH2-oxan-4-yl)]L[NMeA]A[dP]))	1.900 mg/mL	1900 µg/mL (≈ 1870 µM)	64%	64%		0.31	0.4 ×10⁻⁶ cm/s	6	2.9	18 ×10⁻⁶ cm/s	17.2 ×10⁻⁶ cm/s	1%	2%	39%	4%	6.4					bioavailability ([5]; in vivo, 30 mg/kg, oral dose 30 mg/kg, no inhibitors, based on AUC at 1 mg/kg IV dose, read-out: BA): 11.5%; bioavailability ([5]; in vivo, 100 mg/kg, oral dose 100 mg/kg, no inhibitors, based on AUC at 1 mg/kg IV dose, read-out: BA): 22.1%; bioavailability ([5]; in vivo, 200 mg/kg, oral dose 200 mg/kg, no inhibitors, based on AUC at 1 mg/kg IV dose, read-out: BA): 49.8%; BA ([5]; oral dose 3 mg/kg, no inhibitors, based on AUC at 1 mg/kg IV dose): 1% and 0.99%; BA ([5]; oral dose 200 mg/kg, no inhibitors, based on AUC at 1 mg/kg IV dose): 50%
CCN1CC(=O)N[C@@H](CC(C)C)C(=O)N(C)[C@@H](C)C(=O)N[C@@H](CC(C)C)C(=O)N2CCC[C@@H]2C(=O)N(CC2CCOCC2)CC(=O)N[C@@H](CC(C)C)C(=O)N(C)[C@@H](C)C(=O)N[C@@H](Cc2ccccc2)C(=O)N2CCC[C@@H]2C1=O [Compound A09] (cyclo([NEtG]L[NMeA]L[dP][Gly(N-CH2-oxan-4-yl)]L[NMeA]F[dP]))	0.600 mg/mL	600 µg/mL (≈ 550 µM)	67%	67%	98%	0.01	3.1 ×10⁻⁶ cm/s	43	4.1	35 ×10⁻⁶ cm/s	35.7 ×10⁻⁶ cm/s	2%	5%	> 100%	22%	46.9	640 µg/mL (≈ 586 µM)	105^c %	some membrane transport was observed		LogD (oct/w) ([3]; pH 7.4): >4.1
CCN1CC(=O)N[C@@H](CC(C)C)C(=O)N(C)[C@@H](C)C(=O)N[C@@H](CC(C)C)C(=O)N2CCC[C@@H]2C(=O)N(CC2CCCCC2)CC(=O)N[C@@H](CC(C)C)C(=O)N(C)[C@@H](C)C(=O)N[C@@H](Cc2ccccc2)C(=O)N2CCC[C@@H]2C1=O [Compound A08] (cyclo(F[dP][NEtG]L[NMeA]L[dP][NCyclohexylmethylGly]L[NMeA]))	0.070 mg/mL	70 µg/mL (≈ 64.3 µM)	33%	33%	99% and >99.8%		25 ×10⁻⁶ cm/s		4.1	18 ×10⁻⁶ cm/s	18.8 ×10⁻⁶ cm/s	5%	31%	59%	7%		6.8 µg/mL (≈ 6.24 µM)			24.7 ×10⁻⁶ cm/s	

Further lines, with some results ahead:

Aq. Sol. [1]	solubility [1, 9]	remaining at 0.5 h (Microsomal stability)	Microsomal Stability (Microsomal stability)	Serum Protein Binding (Serum protein binding)	fraction unbound (Serum protein binding)	Papp (in vitro)	efflux ratio at 10 μM (P-gp [2])	logD [3]	Papp [4]	PAMPA Perm. [4]	bioavailability [5, 10]	bioavailability [5, 11]	bioavailability [5, 12]	bioavailability [5, 13]	P-gp R-value (P-gp [6])	solubility [1, 14]	Oral bioavailability, +CYP inhib. +P-gp inhib. [5, 15]	PAMPA membrane transport [7]	MDCK Perm. (MDCK cells; dog)	SMILES	other results
1.900 mg/mL	1900 µg/mL (≈ 1870 µM)	94%	94%	56%	0.43	0.3 ×10⁻⁶ cm/s	1.4	2.1												CCN1CC(=O)N[C@@H](CC(C)C)C(=O)N2CCC[C@@H]2C(=O)N(C)[C@@H](CC(C)C)C(=O)N[C@@H](C)C(=O)N(CC2CCOCC2)CC(=O)N[C@@H](C)C(=O)N2CCC[C@@H]2C(=O)N(C)[C@@H](CC(C)C)C(=O)N[C@@H](C)C1=O [Compound B03] (cyclo(A[NEtG]L[dP][NMeL]A[Gly(N-CH2-oxan-4-yl)]A[dP][NMeL]))	
	20 µg/mL (≈ 18.4 µM)	53%	53%						50 ×10⁻⁶ cm/s	>50 ×10⁻⁶ cm/s			> 100%		19.2		101^c %	some membrane transport was observed	15.3 ×10⁻⁶ cm/s	CCN1CC(=O)N[C@@H](CC(C)C)C(=O)N2CCC[C@@H]2C(=O)N(C)[C@@H](CC(C)C)C(=O)N[C@@H](C)C(=O)N(CC2CCCCC2)CC(=O)N[C@@H](Cc2ccccc2)C(=O)N2CCC[C@@H]2C(=O)N(C)[C@@H](CC(C)C)C(=O)N[C@@H](C)C1=O [Compound B08] (cyclo([NEtG]L[dP][NMeL]A[NCyclohexylmethylGly]F[dP][NMeL]A))	Oral bioavailability, no inhib. ([5]; mice, oral, no inhibitors): 6%; Oral bioavailability, +CYP inhib. ([5]; mice, oral, pretreatment with 1-aminobenztriazole (CYP inhibitor)): 148^c %; Oral bioavailability, +P-gp inhib. [5, 16]: 13%; LogD (oct/w) [8]: 4.8; MDCK Perm. (MDCK cells): 15 ×10⁻⁶ cm/s; logD (physchem): > 4.8
2.200 mg/mL	2200 µg/mL (≈ 2020 µM)	90%	90%						0.7 ×10⁻⁶ cm/s	1.4 ×10⁻⁶ cm/s	0.7%	1.5%			10		14%		0.4 ×10⁻⁶ cm/s	CCN1CC(=O)N[C@@H](CC(C)C)C(=O)N2CCC[C@@H]2C(=O)N(C)[C@@H](CC(C)C)C(=O)N[C@@H](C)C(=O)N(CC2CCOCC2)CC(=O)N[C@@H](Cc2ccccc2)C(=O)N2CCC[C@@H]2C(=O)N(C)[C@@H](CC(C)C)C(=O)N[C@@H](C)C1=O [Compound B09] (cyclo(A[NEtG]L[dP][NMeL]A[Gly(N-CH2-oxan-4-yl)]F[dP][NMeL]))	Oral bioavailability, +P-gp inhib. [5, 16]: 3%; logD (physchem): 3.6
